Measured values reported in patent publication US11040053B2, “Compositions and methods for activating “stimulator of interferon gene”13 dependent signalling” (CHINOOK THERAPEUTICS, INC., priority 2015, dated 2021).

Experiments:
HAQ allele hSTING = biological target: T1, HAQ allele hSTING (Homo sapiens, UniProt Q86WV6, G230A/H232R/R293Q); test: Differential scanning fluorometry (DSF) binding to purified hSTING HAQ allele; conditions: DSF, 1 mg/ml STING AA140-379, ligand 1 mM
T1 construct: DNA encoding amino acids 140-379 (amino acid numbering corresponding to Swiss Prot Q86WV6); 6xHIS (N, cleaved yes); SUMO (N, cleaved yes); made in house; host or cells: Rosetta2 (DE3) E. coli
Method: (§1) Cells were grown in lysogeny broth at 37° C. until a […] absorbance of 0.6 was reached. […] Cell pellets were re-suspended on ice in a buffer containing 50 mM Tris hydrochloride (Tris-HCl) pH 7.5, 500 mM sodium chloride (NaCl), 20 mM imidazole, 10% glycerol, 1 mM tris(2-carboxyethyl)phosphine hydrochloride (TCEP) and protease inhibitor tablet (Pierce) (Buffer A). Cells were lysed using an S-450D sonifier (Emmerson industrial) on ice. […] Protein was aliquoted, flash frozen in liquid nitrogen and stored at −80° C. until use.
(§2) The protein is heated in the presence of a dye that binds to and fluoresces in hydrophobic environments. The protein is thermally denatured by heating resulting in increased dye binding to the unfolded protein and fluorescence. The temperature midpoint (Tm) of a proteins denaturation is established by calculating the half maximal value of the denaturation curve. The temperature midpoint of the protein in the presence of a ligand is directly related to the affinity of the ligand for the protein and therefore its ability to stabilize the protein at higher temperatures.
(§3) Samples were placed in hard shell PCR plate (Bio-Rad). The fluorescence as a function of temperature was recorded in a CFX 96 real time PCR machine (Bio-Rad) reading on the HEX channel, excitation 450-490, emission 560-580 nm. The temperature gradient was from 15-80° C. ramping 0.5° C. per 15 seconds and recording every 0.5° C. After subtraction of the background signal from a sample lacking protein and ligand. The midpoint temperature (Tm) was calculated by fitting the curves of the fluorescence as a function of temperature to a Boltzmann sigmoidal function (Graph Pad Prism).

hSTING(WT) = hSTING(WT) (Homo sapiens, UniProt Q86WV6, H232R); test: Differential scanning fluorometry (DSF) binding to purified hSTING WT; parameters: DNA encoding amino acids 140-379 (amino acid numbering corresponding to Swiss Prot Q86WV6); 6xHIS (N, cleaved yes); SUMO (N, cleaved yes); made in house; host or cells: Rosetta2 (DE3) E. coli; conditions: DSF, 1 mg/ml STING AA140-379, ligand 1 mM
Method: as §1, §2, §3

[1] = biological target: T2, human-STING(E149-S379)H232R protein (Homo sapiens, UniProt Q86WV6, H232R); test: Surface Plasmon Resonance binding to hSTING WT; conditions: Biacore T200, 15° C., steady-state analysis
T2 construct: His6 (C); made in house; host or cells: E. coli
Method: Binding of the mono- and di-F CDN compounds was assessed using Surface Plasmon Resononce to determine a binding constant. An E. coli expression construct (human-STING[E149-S379]H232R) was prepared harboring the protein sequence:
Aliquots were prepared and stored at −80° C. in 30 mM Tris pH 7.5/100 mM NaCl/10% glycerol.
N-terminal avi-tagged human-STING(E149-S379)H232R protein was immobilized (2500 RUs) on a streptavidin chip at 15° C. in a Biacore T200 (GE Healthcare). Titrations of cyclic dinucleotides (CDNs as indicated in Table 6) in 30 mM Tris pH 7.5/50 mM NaCL/0.005% Tween 20/1 mM DTT/2% DMSO, were profiled (30 μLs/min, 180 seconds for sample contact/120 seconds for dissociation) against hSTING at 15° C. Kinetic analysis of the data was performed using Biacore T200 Evaluation software. Steady-state analysis of the data was performed using Graphpad Prism 6.0 software, using one site-specific binding algorithm (Equation is Y=Bmax*X/(Kd+X)).

hSTING(REF) = hSTING(REF) (Homo sapiens, UniProt Q86WV6); test: Differential scanning fluorometry (DSF) binding to purified hSTING REF allele; parameters: DNA encoding amino acids 140-379 (amino acid numbering corresponding to Swiss Prot Q86WV6); 6xHIS (N, cleaved yes); SUMO (N, cleaved yes); made in house; host or cells: Rosetta2 (DE3) E. coli; conditions: for hSTING Tm Shift REF: DSF, 1 mg/ml STING AA140-379, ligand 1 mM; for binding relative to OH reference compound, in words: Table 4 comment, REF allele hSTING
Method: as §1, §2, §3

hSTING HAQ allele = biological target: T3, hSTING HAQ allele (Homo sapiens, UniProt Q86WV6, G230A/H232R/R293Q/R71H); test: IRF-3 inducible secreted luciferase reporter in THP1-Dual cells without digitonin; type: cell-based; conditions: for activity relative to OH reference compound, in words: Table 5 comment, THP1 cells without digitonin; for EC50: without digitonin in THP1 cells (HAQ allele)
T3 construct: a human monocyte cell line containing the hSTING HAQ allele; host or cells: THP1-Dual cells
Method: After 30 minutes, cells were washed and fresh RPMI media containing 10% FBS was added, and cells were incubated at 37° C. with 5% CO2 Cell culture supernatants from each sample were collected after overnight incubation, and 10 μL of the cell culture supernatants was added to 50 μL QUANTI-Luc reagent (Invivogen). Type I interferon activation was determined by measuring secreted luciferase levels on a SpectraMax M3 spectrophotometer (Molecular Devices). The EC50 value was determined from the dose-response curve for the 10 concentrations from the serial dilution of the reference compounds and compounds of the invention tested in this assay as listed in Table 5.

T2 sequence (Q86WV6 with tags, fused parts or gaps H232R): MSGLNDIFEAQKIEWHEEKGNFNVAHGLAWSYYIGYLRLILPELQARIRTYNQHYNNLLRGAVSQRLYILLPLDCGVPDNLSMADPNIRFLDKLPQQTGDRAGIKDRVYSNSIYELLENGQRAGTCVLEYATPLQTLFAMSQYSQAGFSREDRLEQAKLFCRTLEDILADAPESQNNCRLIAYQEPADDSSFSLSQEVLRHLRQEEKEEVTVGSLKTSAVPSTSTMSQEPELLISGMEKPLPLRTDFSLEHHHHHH
Sequence of hSTING(REF) (Q86WV6 140-379): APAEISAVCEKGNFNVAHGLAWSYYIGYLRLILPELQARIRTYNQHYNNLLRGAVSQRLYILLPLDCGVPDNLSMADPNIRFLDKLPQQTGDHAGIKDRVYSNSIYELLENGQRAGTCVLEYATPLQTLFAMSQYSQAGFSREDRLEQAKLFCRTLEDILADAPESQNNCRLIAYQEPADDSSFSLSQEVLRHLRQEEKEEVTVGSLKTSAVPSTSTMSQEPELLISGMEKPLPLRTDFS
T3 sequence (Q86WV6 whole entry R71H/G230A/H232R/R293Q): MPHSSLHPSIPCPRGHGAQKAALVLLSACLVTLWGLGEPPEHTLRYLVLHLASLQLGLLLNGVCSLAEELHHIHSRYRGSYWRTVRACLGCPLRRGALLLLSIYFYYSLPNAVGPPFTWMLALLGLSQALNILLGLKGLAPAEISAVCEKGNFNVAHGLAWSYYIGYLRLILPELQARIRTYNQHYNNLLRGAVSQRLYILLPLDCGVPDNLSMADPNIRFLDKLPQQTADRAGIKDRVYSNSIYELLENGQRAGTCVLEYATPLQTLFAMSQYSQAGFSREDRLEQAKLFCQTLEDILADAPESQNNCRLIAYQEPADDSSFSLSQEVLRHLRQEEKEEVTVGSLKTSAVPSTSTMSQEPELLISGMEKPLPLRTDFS
T1 sequence (Q86WV6 140-379 G230A/H232R/R293Q limits assumed): as the sequence (Q86WV6 140-379) above, with G91A, H93R, R154Q counted along it
Sequence of hSTING(WT) (Q86WV6 140-379 H232R): as the sequence (Q86WV6 140-379) above, with H93R counted along it

Row | Compound | hSTING Tm Shift HAQ (HAQ allele hSTING) | hSTING Tm Shift WT (hSTING(WT)) | Kd [1] | hSTING Tm Shift REF (hSTING(REF)) | activity relative to OH reference compound, in words (hSTING HAQ allele) | EC50 (hSTING HAQ allele) | binding relative to OH reference compound, in words (hSTING(REF))
1 | Nc1ncnc2c1ncn2[C@@H]1O[C@@H]2COP(=O)(O)O[C@H]3[C@@H](F)[C@H](n4cnc5c(N)ncnc54)O[C@@H]3COP(=O)(O)O[C@H]2[C@H]1F [3'3'-(2'F-A)(2'F-A), reference compound] | 20.6 °C | 12.6 °C | 0.011 µM | 6.4 °C | – | – | –
2 | Nc1ncnc2c1ncn2[C@@H]1O[C@@H]2CO[P@@](=O)(S)O[C@H]3[C@@H](F)[C@H](n4cnc5c(N)ncnc54)O[C@@H]3CO[P@](=O)(S)O[C@H]2[C@H]1F [Compound 6a, (2R,3R,3aR,5R,7aR,9R,10R,10aR,12S,14aR)-2,9-bis(6-amino-9H-purin-9-yl)-3,10-difluoro-5,12-dimercaptooctahydro-2H,7H-difuro [3,2-d:3′,2′-j][1,3,7,9]tetraoxa[2,8]diphosphacyclododecine 5,12-dioxide] | – | – | 0.029 µM | – | improved activity | 8 µM | –
3 | Nc1nc2c(ncn2[C@@H]2O[C@@H]3CO[P@@](=O)(S)O[C@H]4[C@@H](F)[C@H](n5cnc6c(N)ncnc65)O[C@@H]4CO[P@@](=O)(S)O[C@H]3[C@H]2F)c(=O)[nH]1 [Compound 14, 2-Amino-9-((2R,3R,3aR,5R,7aR,9R,10R,10aR,12R,14aR)-9-(6-amino-9H-purin-9-yl)-3,10-difluoro-5,12-dimercapto-5,12-dioxidooctahydro-2H,7H-difuro [3,2-d:3′,2′-j][1,3,7,9]tetraoxa[2,8]diphosphacyclododecin-2-yl)-1,9-dihydro-6H-purin-6-one] | 34.2 °C | 19.3 °C | 0.093 µM | 12.5 °C | – | 3 µM | –
4 | Nc1nc2c(ncn2[C@@H]2O[C@@H]3CO[P@](=O)(S)O[C@H]4[C@@H](F)[C@H](n5cnc6c(N)ncnc65)O[C@@H]4CO[P@@](=O)(S)O[C@H]3[C@H]2F)c(=O)[nH]1 [Compound 14a, 2-amino-9-((2R,3R,3aR,5R,7aR,9R,10R,10aR,12S,14aR)-9-(6-amino-9H-purin-9-yl)-3,10-difluoro-5,12-dimercapto-5,12-dioxidooctahydro-2H,7H-difuro [3,2-d:3′,2′-j][1,3,7,9]tetraoxa[2,8]diphosphacyclododecin-2-yl)-1,9-dihydro-6H-purin-6-one] | – | – | 0.098 µM | – | improved activity | 18 µM | –
5 | Nc1nc2c(ncn2[C@@H]2O[C@@H]3CO[P@](=O)(S)O[C@H]4[C@@H](F)[C@H](n5cnc6c(N)ncnc65)O[C@@H]4CO[P@@](=O)(S)O[C@H]3[C@H]2O)c(=O)[nH]1 [Compound 24a, 2-amino-9-((2R,3R,3aS,5R,7aR,9R,10R,10aR,12S,14aR)-9-(6-amino-9H-purin-9-yl)-10-fluoro-3-hydroxy-5,12-dimercapto-5,12-dioxidooctahydro-2H,7H-difuro[3,2-d:3′,2′-j][1,3,7,9]tetraoxa[2,8]diphosphacyclododecin-2-yl)-1,9-dihydro-6H-purin-6-one] | 15.3 °C | 9.3 °C | 0.684 µM | 7.0 °C | – | 89 µM | –
6 | CC(C)C(=O)Nc1nc2c(ncn2[C@@H]2O[C@@H]3CO[P@@](=O)(S)O[C@H]4[C@@H](F)[C@H](n5cnc6c(N)ncnc65)O[C@@H]4CO[P@@](=O)(S)O[C@H]3[C@H]2F)c(=O)[nH]1 [Compound 26, N-(9-((2R,3R,3aR,5R,7aR,9R,10R,10aR,12R,14aR)-9-(6-amino-9H-purin-9-yl)-3,10-difluoro-5,12-dimercapto-5,12-dioxidooctahydro-2H,7H-difuro[3,2-d:3′,2′-j][1,3,7,9]tetraoxa[2,8]diphosphacyclododecin-2-yl)-6-oxo-6,9-dihydro-1H-purin-2-yl)isobutyramide] | 18.4 °C | 13.3 °C | – | 10.5 °C | improved activity | 23 µM | improved binding
7 | O=C(Nc1ncnc2c1ncn2[C@@H]1O[C@@H]2CO[P@@](=O)(S)O[C@H]3[C@@H](F)[C@H](n4cnc5c(NC(=O)c6ccccc6)ncnc54)O[C@@H]3CO[P@@](=O)(S)O[C@H]2[C@H]1F)c1ccccc1 [Compound 27, N,N′-(((2R,3R,3aR,5R,7aR,9R,10R,10aR,12R,14aR)-3,10-difluoro-5,12-dimercapto-5,12-dioxidooctahydro-2H,7H-difuro [3,2-d:3′,2′-j][1,3,7,9]tetraoxa[2,8]diphosphacyclododecine-2,9-diyl)bis(9H-purine-9,6-diyl))dibenzamide] | 10.1 °C | 8.9 °C | – | 8.7 °C | – | > 150 µM | improved binding
8 | Nc1nc2c(ncn2[C@@H]2O[C@@H]3COP(=O)(O)O[C@H]4[C@@H](F)[C@H](n5cnc6c(N)ncnc65)O[C@@H]4COP(=O)(O)O[C@H]3[C@H]2F)c(=O)[nH]1 [Compound 30, 2-amino-9-((2R,3R,3aR,7aR,9R,10R,10aR,14aR)-9-(6-amino-9H-purin-9-yl)-3,10-difluoro-5,12-dihydroxy-5,12-dioxidooctahydro-2H,7H-difuro[3,2-d:3′,2′-j][1,3,7,9]tetraoxa[2,8]diphosphacyclododecin-2-yl)-1,9-dihydro-6H-purin-6-one] | 27.7 °C | 14.3 °C | – | 7.8 °C | – | 10 µM | –
